Type in all cases: functional
Assay [1] relates to Staphylococcus aureus. The assay is described as follows: Antibacterial activity against Staphylococcus aureus assessed as bacterial growth inhibition incubated for 18 to 24 hrs by broth microdilution assay. Conditions: time 18-24 hrs. In general terms: Broth dilution looks for growth in wells or tubes with falling amounts of substance.
Assay [2] relates to Escherichia coli. The assay is described as follows: Antibacterial activity against Escherichia coli assessed as bacterial growth inhibition incubated for 18 to 24 hrs by broth microdilution assay. To be noted: time 18-24 hrs.
The test system of assay [3] is Mycobacterium tuberculosis. The assay is described as follows: Anti-mycobacterial activity against Mycobacterium tuberculosis H37Rv ATCC […] assessed as bacterial growth inhibition by alamar blue assay. A general note: Resazurin is reduced to fluorescent resorufin, in cell work by metabolically active cells.
Assay [4] concerns Staphylococcus aureus. The assay is described as follows: Antibacterial activity against Staphylococcus aureus assessed as bacterial growth inhibition incubated for 24 hrs.
Assay [5] relates to Staphylococcus aureus. Description: Antibacterial activity against methicillin-resistant Staphylococcus aureus ATCC 33591 assessed as bacterial growth inhibition by CLSI based broth microdilution method.
In assay [6] the test system is Nakaseomyces glabratus. The assay is described as follows: Synergistic antifungal activity against Candida glabrata assessed as fractional inhibitory concentration index in presence of fluconazole incubated for 18 hrs by checkerboard assay.
Assay [7] relates to Nakaseomyces glabratus. Description: Synergistic antifungal activity against Candida glabrata assessed as fractional inhibitory concentration index in presence of voriconazole incubated for 18 hrs by checkerboard assay.
For assay [8], the system named is Nakaseomyces glabratus. The assay is described as follows: Synergistic antifungal activity against Candida glabrata assessed as fractional inhibitory concentration index in presence of amphotericin incubated for 18 hrs by checkerboard assay.
Assay [9] has as its system Staphylococcus aureus. Description: Antibacterial activity against methicillin-resistant Staphylococcus aureus assessed as bacterial growth inhibition.
Assay [10] concerns Staphylococcus epidermidis. Description: Antibacterial activity against methicillin-resistant Staphylococcus epidermidis assessed as bacterial growth inhibition.
The subject of assay [11] is Enterococcus faecalis. Description: Antibacterial activity against vancomycin-resistant Enterococcus faecalis assessed as bacterial growth inhibition.
The subject of assay [12] is Escherichia coli. Description: Antibacterial activity against Escherichia coli assessed as bacterial growth inhibition.
The subject of the next assay is Klebsiella pneumoniae. The assay is described as follows: Antibacterial activity against Klebsiella pneumoniae assessed as bacterial growth inhibition.
Assay [13] has as its system Pseudomonas aeruginosa. Description: Antibacterial activity against Pseudomonas aeruginosa assessed as bacterial growth inhibition.
The test system of another assay is Clostridioides difficile. Description: Antibacterial activity against Clostridium difficile assessed as bacterial growth inhibition incubated for 24 hrs.
Assay [14] concerns Escherichia coli. The assay is described as follows: Antibacterial activity against Escherichia coli assessed as bacterial growth inhibition incubated for 24 hrs.
Assay [15] has as its system Mycobacterium tuberculosis. Description: Antibacterial activity against Mycobacterium tuberculosis H37Rv assessed as bacterial growth inhibition by vertical diffusion method.
For assay [16], the system named is Staphylococcus aureus. The assay is described as follows: Potentiation of Norfloxacin-induced antibacterial activity against Staphylococcus aureus 1199B overexpressing NorA efflux pump assessed as fold reduction in norfloxacin MIC by microdilution method.
In assay [17] the test system is Staphylococcus aureus. Description: Potentiation of ethidium bromide-induced antibacterial activity against Staphylococcus aureus 1199B overexpressing NorA efflux pump assessed as fold reduction in ethidium bromide MIC by microdilution method.
In assay [18] the test system is Mycolicibacterium smegmatis. The assay is described as follows: Potentiation of cefotaxime-induced antibacterial activity against Mycobacterium smegmatis assessed as cefotaxime MIC incubated for 48 hrs by alamar blue assay (reference value: 64 ug/ml).
For assay [19], the system named is Staphylococcus aureus. Description: Potentiation of Norfloxacin-induced antibacterial activity against Staphylococcus aureus 1199B overexpressing NorA efflux pump assessed as norfloxacin MIC by microdilution method.
Assay [20] concerns Staphylococcus aureus. The assay is described as follows: Potentiation of ethidium bromide-induced antibacterial activity against Staphylococcus aureus 1199B overexpressing NorA efflux pump assessed as ethidium bromide MIC by microdilution method.
The test system of assay [21] is Mycolicibacterium smegmatis. The assay is described as follows: Potentiation of cefotaxime-induced antimycobacterial activity against Mycobacterium smegmatis assessed as cefotaxime MIC at 9 ug/ml (reference value: 128 ug/ml). To be noted: dose 9 µg/ml.
Assay [22] has as its system Staphylococcus aureus. The assay is described as follows: Antibacterial activity against Staphylococcus aureus assessed as inhibition of bacterial growth measured after 24 hrs.
Assay [23] deals with Enterococcus faecalis. The assay is described as follows: Antibacterial activity against Enterococcus faecalis assessed as inhibition of bacterial growth measured after 24 hrs.
For assay [24], the system named is Bacillus subtilis. The assay is described as follows: Antibacterial activity against Bacillus subtilis assessed as inhibition of bacterial growth measured after 24 hrs.
For assay [25], the system named is Staphylococcus aureus. The assay is described as follows: Antibacterial activity against Staphylococcus aureus CMCC (B) 26003 assessed as inhibition of bacterial growth incubated for 24 hrs by microplate reader analysis.
Assay [26] relates to Staphylococcus aureus. The assay is described as follows: Antibacterial activity against Staphylococcus aureus CMCC 25923 assessed as inhibition of bacterial growth incubated for 24 hrs by microplate reader analysis.
For the next assay, the system named is Streptococcus mutans. Description: Antibacterial activity against Streptococcus mutans BNCC 336931 assessed as inhibition of bacterial growth incubated for 24 hrs by microplate reader analysis.
The subject of assay [27] is Enterococcus faecalis. The assay is described as follows: Antibacterial activity against Enterococcus faecalis CMCC 29212 assessed as inhibition of bacterial growth incubated for 24 hrs by microplate reader analysis.
Assay [28] relates to Bacillus subtilis. The assay is described as follows: Antibacterial activity against Bacillus subtilis CMCC 63501 assessed as inhibition of bacterial growth incubated for 24 hrs by microplate reader analysis.
The subject of assay [29] is Escherichia coli. The assay is described as follows: Antibacterial activity against Escherichia coli CMCC 25922 assessed as inhibition of bacterial growth incubated for 24 hrs by microplate reader analysis.
Assay [30] relates to Escherichia coli. The assay is described as follows: Antibacterial activity against Escherichia coli CMCC 44568 assessed as inhibition of bacterial growth incubated for 24 hrs by microplate reader analysis.
Assay [31] deals with Pseudomonas aeruginosa. Description: Antibacterial activity against Pseudomonas aeruginosa CMCC 27853 assessed as inhibition of bacterial growth incubated for 24 hrs by microplate reader analysis.
For assay [32], the system named is Pseudomonas aeruginosa. Description: Antibacterial activity against Pseudomonas aeruginosa CMCC 10104 assessed as inhibition of bacterial growth incubated for 24 hrs by microplate reader analysis.
Assay [33] has as its system Staphylococcus aureus. The assay is described as follows: Antibacterial activity against multidrug-resistant Staphylococcus aureus ATCC 43300 assessed as inhibition of bacterial growth incubated for 24 hrs by microplate reader analysis.
The subject of assay [34] is Staphylococcus aureus. Description: Antibacterial activity against multidrug-resistant Staphylococcus aureus ATCC 33591 assessed as inhibition of bacterial growth incubated for 24 hrs by microplate reader analysis.
The subject of assay [35] is Pseudomonas aeruginosa. Description: Antibacterial activity against multidrug-resistant Pseudomonas aeruginosa ATCC BAA-2111 assessed as inhibition of bacterial growth incubated for 24 hrs by microplate reader analysis.
Assay [36] has as its system Mycobacterium tuberculosis. The assay is described as follows: Anti-mycobacterial activity against Mycobacterium tuberculosis H37Rv ATCC 27294 assessed as bacterial growth inhibition incubated for 7 days by resazurin dye based assay. Conditions: H37Rv ATCC 27294, 168 h, time 7 day.

For orientation: MIC means the smallest concentration in the dilution series that meets the test's criterion for growth inhibition.

≈ marks a conversion by molar mass, not a printed value. Some results are limits rather than exact numbers.

With `N=C(N)NCCNC(=O)[C@H](Cc1c[nH]c2ccccc12)NC(=O)c1cc(Br)ccc1NC(=O)c1ccc2ccccc2c1`, the MIC in the assay on Staphylococcus aureus [1] amounted to 2 µM (≈ 1.28 µg/mL); in the assay on Escherichia coli [2] it was 15.6 µM (≈ 9.99 µg/mL).
Turning to `Cc1nn(-c2ccccc2)c(Cl)c1-c1nc(N)nc2c1c(C)nn2-c1ccc(S(=O)(=O)O)cc1Cl`, in assay [3], the MIC came out at 1.2 µg/mL (≈ 2.26 µM).
For the compound `COC(=O)C(CCCNC(=N)N)NC(=O)C(CCCCNC(=N)N)NC(=O)C(=O)c1cc(Br)ccc1NC(=O)c1ccc2ccccc2c1.Cl.Cl` (stereo unspecified), in the assay on Staphylococcus aureus [4], the MIC turned out to be 10 µg/mL.
With `Cc1nn(-c2ccccc2)c(Cl)c1-c1nc(N)nc2c1c(C)nn2-c1cccc(Cl)c1`, the MIC in assay [3] turned out to be 1.2 µg/mL (≈ 2.66 µM).
`N=C(N)NC[C@H]1OC(O[C@H]2C(NC(=O)[C@H](O)CCN)C[C@H](N)[C@@H](O[C@H]3O[C@H](CN)[C@@H](O)[C@H](O)[C@H]3O)[C@@H]2O)[C@H](O)[C@@H](N)[C@@H]1O` (stereo partly specified): the MIC in the assay with Staphylococcus aureus [5] amounted to 3.12 µg/mL (≈ 4.99 µM).
`N=C(N)NC(=N)NCCc1ccccc1` [PHENFORMIN]: the “fractional inhibitory concentration index (FICI)” value in the assay on Nakaseomyces glabratus [6], in the assay with Nakaseomyces glabratus [7] and in the assay on Nakaseomyces glabratus [8] was 0.5 throughout.
Consider `CN(C)C(=N)NC(=N)N` [METFORMIN], for which the “fractional inhibitory concentration index (FICI)” value with Nakaseomyces glabratus [6], with Nakaseomyces glabratus [7] and in the assay with Nakaseomyces glabratus [8] was 0.5 in each case.
`CCCCCCN1C(=N)N(CC(=O)Nc2cccc(NC(=O)CN3C[C@H](Cc4ccccc4)N(CCCCCC)C3=N)c2)C[C@@H]1Cc1ccccc1`: the MIC was determined as 0.16 µg/mL (≈ 0.226 µM) in the assay with Staphylococcus aureus [9]; 0.75 µg/mL (≈ 1.06 µM) in assay [10]; 0.75 µg/mL (≈ 1.06 µM) with Enterococcus faecalis [11]; 0.75 µg/mL (≈ 1.06 µM) in the assay with Escherichia coli [12]; 0.75 µg/mL (≈ 1.06 µM) with Klebsiella pneumoniae; 4 µg/mL (≈ 5.66 µM) with Pseudomonas aeruginosa [13]. In the assay with Clostridioides difficile, the MIC worked out at 1 µg/mL (≈ 1.41 µM).
Turning to `COC(=O)C(CCCCNC(=N)N)NC(=O)C(=O)c1cc(Br)ccc1NC(=O)c1ccc2ccccc2c1.Cl` (stereo unspecified), the MIC with Escherichia coli [14] was found to be 19 µg/mL.
With `N=C(N)Nc1nnc2nccn2n1`, the MIC in assay [15] worked out at 1.5 µg/mL (≈ 8.42 µM).
Take `Cl.N#Cc1ccc(/C=N/NC(=N)N)cc1`: the “fold change (FC)” value in the assay with Staphylococcus aureus [16] is “<=16”; in the assay on Staphylococcus aureus [17], “<=32”.
With `CCCCCCCC(NC(=O)CCCc1c[nH]c(N)n1)c1ccccc1` (stereo unspecified), the MIC in [18] turned out to be 2 µg/mL.
As to `Cl.N=C(N)N/N=C/c1ccnc2ccccc12`, the MIC came to 8 µg/mL in the assay on Staphylococcus aureus [19] and 1 µg/mL in the assay with Staphylococcus aureus [20]. Besides, the “fold change (FC)” value in the assay on Staphylococcus aureus [16] is given as “<=16”; with Staphylococcus aureus [17], “<=32”.
For `N=C(N)NC[C@H]1OC(O[C@@H]2[C@@H](O)[C@H](O[C@H]3O[C@H](CN)[C@@H](O)[C@H](O)[C@H]3O)[C@@H](N)C[C@H]2N)[C@H](O)[C@@H](N)[C@@H]1O` (stereo partly specified), the minimum inhibitory concentration (MIC) in the assay with Staphylococcus aureus [5] came to 3.12 µg/mL (≈ 5.95 µM).
As to `CCCCCc1ccc(C(=O)Nc2ccc3c(c2)nc(N)n3CCCc2ccccc2)cc1`, in [21], the MIC is 1 µg/mL.
As to `N=C(N)N/N=C/c1ccc(C#Cc2ccc(Cl)cc2)cc1`, the MIC with Staphylococcus aureus [22], with Enterococcus faecalis [23], with Bacillus subtilis [24], with Staphylococcus aureus [25], in the assay on Staphylococcus aureus [26] and in the assay on Streptococcus mutans was 0.25 µg/mL (≈ 0.842 µM) in each case. In addition, the MIC in the assay with Enterococcus faecalis [27], in the assay on Bacillus subtilis [28], in the assay with Escherichia coli [29], in the assay with Escherichia coli [30], in the assay with Pseudomonas aeruginosa [31] and in the assay with Pseudomonas aeruginosa [32] was 0.25 µg/mL (≈ 0.842 µM) throughout. For the same compound, the MIC in the assay with Staphylococcus aureus [33], in the assay on Staphylococcus aureus [34] and in the assay with Pseudomonas aeruginosa [35] was 0.25 µg/mL (≈ 0.842 µM) in each case.
For the compound `N=C(N)NCCNC(=O)c1cc2c([nH]c3ccccc32)c(-c2ccc(O)cc2)n1`, the MIC in [36] was 27.8 µg/mL (≈ 71.6 µM).
